Reference: the supplement of paper PMC8882468

system: HCI-002 (organoid from a triple-negative breast cancer xenograft); assay: CTG-3D luminescence at 96 h relative to day-0 seeding control (ratio to day 0); higher = more growth / less cytotoxicity; PDxO 3D drug screen, 96 h, CTG-3D normalised to day-0 seeding control.; settings: 0.005 µM; days in culture: 62

First: Cc1cc(Nc2ncc(Cl)c(Nc3ccccc3S(=O)(=O)C(C)C)n2)c(OC(C)C)cc1C1CCNCC1 [ceritinib]
Second: CS(=O)(=O)c1ccc(C(=O)Nc2ccc(Cl)c(-c3ccccn3)c2)c(Cl)c1 [vismodegib]
The “CTG-3D luminescence at 96 h” value of the first is lower: 3.08 for the first, 3.64 for the second.

In the case of `NC(=O)c1cccc2cn(-c3ccc([C@@H]4CCCNC4)cc3)nc12` [niraparib], the “CTG-3D luminescence at 96 h” value is reported as 3.42.

same assay, conditions: 0.005 µM; days in culture: 82

First: C[C@@H]1COCCN1c1cc(C2([S@](C)(=N)=O)CC2)nc(-c2cc[nH]c3nccc2-3)n1 [ceralasertib]
Second: NC1(C(=O)N[C@@H](CCO)c2ccc(Cl)cc2)CCN(c2nc[nH]c3nccc2-3)CC1 [capivasertib]
The “CTG-3D luminescence at 96 h” value of the first is higher: 2.13 for the first, 1.95 for the second.

Compared with `CCN1CCN(Cc2ccc(Nc3ncc(F)c(-c4cc(F)c5nc(C)n(C(C)C)c5c4)n3)nc2)CC1` [abemaciclib], `Cc1cc(Nc2ncc(Cl)c(Nc3ccccc3S(=O)(=O)C(C)C)n2)c(OC(C)C)cc1C1CCNCC1` [ceritinib] is lower in “CTG-3D luminescence at 96 h” value: 2.24 for the first, 2.18 for the second.

Compared with `CC(C)n1nc(-c2ccc3oc(N)nc3c2)c2c(N)ncnc21` [sapanisertib], `NC(=O)c1cccc2cn(-c3ccc([C@@H]4CCCNC4)cc3)nc12` [niraparib] is higher in “CTG-3D luminescence at 96 h” value: 2.04 for the first, 2.69 for the second.

First: O=C(c1ccc(F)c(F)c1Nc1ccc(I)cc1F)N1CC(O)([C@@H]2CCCCN2)C1 [cobimetinib]
Second: CS(=O)(=O)c1ccc(C(=O)Nc2ccc(Cl)c(-c3ccccn3)c2)c(Cl)c1 [vismodegib]
The “CTG-3D luminescence at 96 h” value of the first is lower: 2.39 for the first, 2.41 for the second.

In the case of `C[C@H](NC(=O)CCC(F)(F)F)C(=O)N[C@@H]1C(=O)N(CCO)c2ncccc2-c2ccccc21` [crenigacestat], the “CTG-3D luminescence at 96 h” value is reported as 2.46.

same assay, conditions: 0.005 µM; days in culture: 91

Compared with `C[C@@H]1COCCN1c1cc(C2([S@](C)(=N)=O)CC2)nc(-c2cc[nH]c3nccc2-3)n1` [ceralasertib], `NC1(C(=O)N[C@@H](CCO)c2ccc(Cl)cc2)CCN(c2nc[nH]c3nccc2-3)CC1` [capivasertib] is lower in “CTG-3D luminescence at 96 h” value: 4.02 for the first, 3.7 for the second.

Compared with `CCN1CCN(Cc2ccc(Nc3ncc(F)c(-c4cc(F)c5nc(C)n(C(C)C)c5c4)n3)nc2)CC1` [abemaciclib], `Cc1cc(Nc2ncc(Cl)c(Nc3ccccc3S(=O)(=O)C(C)C)n2)c(OC(C)C)cc1C1CCNCC1` [ceritinib] is higher in “CTG-3D luminescence at 96 h” value: 2.89 for the first, 3.52 for the second.

Going from `CC(C)n1nc(-c2ccc3oc(N)nc3c2)c2c(N)ncnc21` [sapanisertib] to `NC(=O)c1cccc2cn(-c3ccc([C@@H]4CCCNC4)cc3)nc12` [niraparib], the “CTG-3D luminescence at 96 h” value falls from 2.81 to 1.8.

Compared with `O=C(c1ccc(F)c(F)c1Nc1ccc(I)cc1F)N1CC(O)([C@@H]2CCCCN2)C1` [cobimetinib], `CS(=O)(=O)c1ccc(C(=O)Nc2ccc(Cl)c(-c3ccccn3)c2)c(Cl)c1` [vismodegib] is lower in “CTG-3D luminescence at 96 h” value: 2.9 for the first, 2.04 for the second.

`C[C@H](NC(=O)CCC(F)(F)F)C(=O)N[C@@H]1C(=O)N(CCO)c2ncccc2-c2ccccc21` [crenigacestat] was tested, and the “CTG-3D luminescence at 96 h” value was 2.93.

same assay, conditions: 0.005 µM; days in culture: 191

Going from `C[C@@H]1COCCN1c1cc(C2([S@](C)(=N)=O)CC2)nc(-c2cc[nH]c3nccc2-3)n1` [ceralasertib] to `NC1(C(=O)N[C@@H](CCO)c2ccc(Cl)cc2)CCN(c2nc[nH]c3nccc2-3)CC1` [capivasertib], the “CTG-3D luminescence at 96 h” value falls from 2.17 to 1.88.

First: CCN1CCN(Cc2ccc(Nc3ncc(F)c(-c4cc(F)c5nc(C)n(C(C)C)c5c4)n3)nc2)CC1 [abemaciclib]
Second: Cc1cc(Nc2ncc(Cl)c(Nc3ccccc3S(=O)(=O)C(C)C)n2)c(OC(C)C)cc1C1CCNCC1 [ceritinib]
The “CTG-3D luminescence at 96 h” value of the first is higher: 3.01 for the first, 2.59 for the second.

First: CC(C)n1nc(-c2ccc3oc(N)nc3c2)c2c(N)ncnc21 [sapanisertib]
Second: NC(=O)c1cccc2cn(-c3ccc([C@@H]4CCCNC4)cc3)nc12 [niraparib]
The “CTG-3D luminescence at 96 h” value of the first is lower: 2.07 for the first, 3.35 for the second.

Going from `O=C(c1ccc(F)c(F)c1Nc1ccc(I)cc1F)N1CC(O)([C@@H]2CCCCN2)C1` [cobimetinib] to `CS(=O)(=O)c1ccc(C(=O)Nc2ccc(Cl)c(-c3ccccn3)c2)c(Cl)c1` [vismodegib], the “CTG-3D luminescence at 96 h” value rises from 2.54 to 3.31.

With `C[C@H](NC(=O)CCC(F)(F)F)C(=O)N[C@@H]1C(=O)N(CCO)c2ncccc2-c2ccccc21` [crenigacestat] the “CTG-3D luminescence at 96 h” value was 2.2.

same assay, conditions: 0.005 µM; days in culture: 209

Going from `C[C@@H]1COCCN1c1cc(C2([S@](C)(=N)=O)CC2)nc(-c2cc[nH]c3nccc2-3)n1` [ceralasertib] to `NC1(C(=O)N[C@@H](CCO)c2ccc(Cl)cc2)CCN(c2nc[nH]c3nccc2-3)CC1` [capivasertib], the “CTG-3D luminescence at 96 h” value rises from 1.9 to 2.31.

First: CCN1CCN(Cc2ccc(Nc3ncc(F)c(-c4cc(F)c5nc(C)n(C(C)C)c5c4)n3)nc2)CC1 [abemaciclib]
Second: Cc1cc(Nc2ncc(Cl)c(Nc3ccccc3S(=O)(=O)C(C)C)n2)c(OC(C)C)cc1C1CCNCC1 [ceritinib]
The “CTG-3D luminescence at 96 h” value of the first is higher: 2.4 for the first, 2.23 for the second.

Going from `CC(C)n1nc(-c2ccc3oc(N)nc3c2)c2c(N)ncnc21` [sapanisertib] to `NC(=O)c1cccc2cn(-c3ccc([C@@H]4CCCNC4)cc3)nc12` [niraparib], the “CTG-3D luminescence at 96 h” value rises from 2.27 to 2.54.

Compared with `O=C(c1ccc(F)c(F)c1Nc1ccc(I)cc1F)N1CC(O)([C@@H]2CCCCN2)C1` [cobimetinib], `CS(=O)(=O)c1ccc(C(=O)Nc2ccc(Cl)c(-c3ccccn3)c2)c(Cl)c1` [vismodegib] is higher in “CTG-3D luminescence at 96 h” value: 2.11 for the first, 2.57 for the second.

With `C[C@H](NC(=O)CCC(F)(F)F)C(=O)N[C@@H]1C(=O)N(CCO)c2ncccc2-c2ccccc21` [crenigacestat] the “CTG-3D luminescence at 96 h” value was 2.22.
